Data published in ChEMBL document CHEMBL5346924, “Optically activated MEK1/2 inhibitors (Opti-MEKi) as potential antimelanoma agents” (Eur J Med Chem, 2023).
Calls of active or inactive are those of the source. The calls are words filed in the database; no cut-off is given here.

How the values were obtained:
[1] = test system: A-375; assay: Antiproliferative activity against human A-375 cells harboring BRAF V600E mutant assessed as cell growth inhibition preincubated with compound for 1 hrs followed by 365 nm light irradiation for 5 mins and measured 72 hrs post compound treatment by CellTiter-Glo luminescent assay; assay type: functional; settings: A-375, light or radiation study
[2] = Cytotoxicity against HEK293T cells assessed as cell growth inhibition preincubated with compound for 1 hrs followed by 365 nm light irradiation for 5 mins and measured 72 hrs post compound treatment by CellTiter-Glo luminescent assay; assay type: toxicity, cell-based, HEK-293T; settings: human
[3] = test system: A-375; assay: Antiproliferative activity against human A-375 cells harboring BRAF V600E mutant assessed as cell growth inhibition incubated for 72 hrs in the absence of UV irradiation by CellTiter-Glo luminescent assay; assay type: functional; settings: A-375, light or radiation study
[4] = test system: A-375; assay: Antiproliferative activity against human A-375 cells harboring BRAF V600E mutant assessed as cell growth inhibition preincubated with compound for 1 hrs followed by UV irradiation for 1 min and measured 72 hrs post compound treatment by CellTiter-Glo luminescent assay; assay type: functional; settings: A-375, light or radiation study
[5] = Stability of the compound in PBS-DMSO solution assessed as drug degradation measured after 12 hrs in the absence of light irradiation; assay type: physicochemical; settings: read-out: Drug degradation
[6] = test system: A-375; assay: Antiproliferative activity against human A-375 cells harboring BRAF V600E mutant assessed as cell growth inhibition preincubated with compound for 1 hrs followed by UV irradiation for 3 mins and measured 72 hrs post compound treatment by CellTiter-Glo luminescent assay; assay type: functional; settings: A-375, light or radiation study
[7] = test system: A-375; assay: Antiproliferative activity against human A-375 cells harboring BRAF V600E mutant assessed as cell growth inhibition preincubated with compound for 1 hrs followed by UV irradiation for 5 mins and measured 72 hrs post compound treatment by CellTiter-Glo luminescent assay; assay type: functional; settings: A-375, light or radiation study
[8] = Photoactivation of the compound assessed as photocleavage by measuring decay half-life in the presence of 365 nm UV irradiation by HPLC based LC-MS analysis
[9] = test system: A549; assay: Antiproliferative activity against human A549 cells harboring KRas […] mutant assessed as cell growth inhibition preincubated with compound for 1 hrs followed by UV irradiation for 5 mins and measured 72 hrs post compound treatment by CellTiter-Glo luminescent assay; assay type: functional; settings: A549, light or radiation study
[10] = test system: HCT-116; assay: Antiproliferative activity against human HCT-116 cells harboring KRAS G13D mutant assessed as cell growth inhibition incubated for 72 hrs in the absence of UV irradiation by CellTiter-Glo luminescent assay; assay type: functional; settings: HCT-116, light or radiation study
[11] = test system: A549; assay: Antiproliferative activity against human A549 cells harboring KRAS […] mutant assessed as cell growth inhibition incubated for 72 hrs in the absence of UV irradiation by CellTiter-Glo luminescent assay; assay type: functional; settings: A549, light or radiation study
[12] = test system: HCT-116; assay: Antiproliferative activity against human HCT-116 cells harboring KRAS G13D mutant assessed as cell growth inhibition preincubated with compound for 1 hrs followed by UV irradiation for 5 mins and measured 72 hrs post compound treatment by CellTiter-Glo luminescent assay; assay type: functional; settings: HCT-116, light or radiation study
[13] = Photoactivation of the compound assessed as fold change in caging efficiency
[14] = Photoactivation of the compound assessed as photocleavage by measuring mirdametinib recovery in the presence of 365 nm UV irradiation by HPLC based LC-MS analysis
[15] = Cytotoxicity against HEK293T cells assessed as cell growth inhibition incubated for 72 hrs by CellTiter-Glo luminescent assay; assay type: toxicity, cell-based, HEK-293T; settings: human
[16] = target: Dual specificity mitogen-activated protein kinase kinase 1 (Homo sapiens, UniProt Q02750); assay: Inhibition of MEK1 (unknown origin) incubated for 1 hrs in the presence of ATP by FRET-based Z'-Lyte assay
[17] = Photoactivation of the compound assessed as photocleavage in the presence of 365 nm UV irradiation by HPLC based LC-MS analysis
[18] = test system: A-375; assay: Inhibition of colony formation in human A-375 cells at 10 to 300 nM incubated for 10 days by crystal violet staining based analysis; assay type: functional, cell-based; settings: dose 10-300 nM, time 10.0 day
[19] = target: Mitogen-activated protein kinase; ERK1/ERK2 (Homo sapiens, UniProt P27361+P28482); assay: Inhibition of ERK1/2 phosphorylation in human A-375 cells incubated for 1 hrs in the absence of UV irradiation by Western blot analysis; assay type: cell-based
[20] = Stability in human blood plasma assessed as half-life; assay type: ADME, cell-free
[21] = Stability of the compound under 365 nm UV irradiation measured after 10 mins; assay type: physicochemical

Chain of Dual specificity mitogen-activated protein kinase kinase 1 (Q02750 whole entry): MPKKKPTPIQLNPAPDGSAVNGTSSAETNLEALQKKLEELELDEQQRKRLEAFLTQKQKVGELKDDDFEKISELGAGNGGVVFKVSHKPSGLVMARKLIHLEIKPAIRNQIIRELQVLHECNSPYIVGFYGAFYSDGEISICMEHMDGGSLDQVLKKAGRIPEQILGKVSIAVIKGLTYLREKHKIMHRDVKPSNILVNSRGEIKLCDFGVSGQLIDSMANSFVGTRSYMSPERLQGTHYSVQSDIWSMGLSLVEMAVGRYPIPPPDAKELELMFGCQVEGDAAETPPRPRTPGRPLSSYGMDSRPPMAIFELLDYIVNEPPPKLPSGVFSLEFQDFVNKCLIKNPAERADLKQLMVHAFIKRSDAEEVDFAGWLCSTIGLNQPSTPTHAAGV

GI50 [1] [nM]	GI50 [3] [nM]	GI50 [4] [nM]	GI50 [6] [nM]	GI50 [7] [nM]	half-life [8] [min]	GI50 [9] [nM]	GI50 [10] [nM]	GI50 [11] [nM]	GI50 [12] [nM]	SMILES	GI50 at 72 h [2] [nM]	GI50 at 72 h [15] [nM]	other results
> 100	> 100000	–	–	–	–	–	–	–	–	CC(OC(=O)[C@H](C)NC(=O)OC(C)(C)C)c1cc2c(cc1[N+](=O)[O-])OCO2 (some centres undefined)	> 100000	–	–
–	18.1	9.95	3.76	5.59	0.19	–	–	–	–	COc1cc(CN(c2ccc(I)cc2F)c2c(C(=O)NOC[C@H](O)CO)ccc(F)c2F)c([N+](=O)[O-])cc1OC	–	–	degraded at 12 h [5]: > 30%
–	1520	–	–	–	–	–	–	–	–	COc1ccc(CN(c2ccc(I)cc2F)c2c(C(=O)NOC[C@H](O)CO)ccc(F)c2F)cc1OC	–	–	–
> 100	> 100000	–	–	–	–	–	–	–	–	COc1cc(COC(=O)[C@H](C)NC(=O)OC(C)(C)C)c([N+](=O)[O-])cc1OC	> 100000	–	–
–	9800	222	123	108	0.2	270	1500	> 10000	1750	CCN(CC)c1ccc2c(CO/C(=N\OC[C@H](O)CO)c3ccc(F)c(F)c3Nc3ccc(I)cc3F)cc(=O)oc2c1	–	> 10000	fold change (FC) [13]: > 5085; Drug recovery [14]: < 10%; IC50 [16]: > 30000 nM
–	3.36	–	–	–	–	–	–	–	–	O=C(NOCCO)c1ccc(F)c(F)c1Nc1ccc(I)cc1F	–	–	–
> 100	> 100000	–	–	–	–	–	–	–	–	C[C@H](NC(=O)OC(C)(C)C)C(=O)O	> 100000	–	–
> 100	> 100000	–	–	–	–	–	–	–	–	C[C@H](NC(=O)OC(C)(C)C)C(=O)OCc1cc2c(cc1[N+](=O)[O-])OCO2	> 100000	–	–
–	1170	272	82.8	82.2	1.71	1890	1920	> 10000	1050	COc1cc(CO/C(=N\OC[C@H](O)CO)c2ccc(F)c(F)c2Nc2ccc(I)cc2F)c([N+](=O)[O-])cc1OC	–	> 10000	–
> 100	> 100000	–	–	–	–	–	–	–	–	COc1cc(C(C)OC(=O)[C@H](C)NC(=O)OC(C)(C)C)c([N+](=O)[O-])cc1OC (some centres undefined)	> 100000	–	–
15.8	> 100000	–	–	–	–	–	–	–	–	CCN(CC)c1ccc2c(COC(=O)[C@H](C)NC(=O)OC(C)(C)C)cc(=O)oc2c1	> 100000	–	–
–	7130	43.4	16	9.4	0.52	–	–	–	–	COc1cc(COCCONC(=O)c2ccc(F)c(F)c2Nc2ccc(I)cc2F)c([N+](=O)[O-])cc1OC	–	–	–
–	3610	28.6	9.7	7.17	1.26	478	> 10000	> 10000	169	CC(O/C(=N\OC[C@H](O)CO)c1ccc(F)c(F)c1Nc1ccc(I)cc1F)c1cc2c(cc1[N+](=O)[O-])OCO2 (some centres undefined)	–	> 10000	Drug metabolism [17]: Metabolite_Detected
–	1.28	1.37	1.59	1.49	–	10.6	44.7	4.94	52.5	O=C(NOC[C@H](O)CO)c1ccc(F)c(F)c1Nc1ccc(I)cc1F [MIRDAMETINIB]	–	> 10000	inhibition [18]: Active; EC50 [19]: ~ 1.2 nM; half-life [20]: > 289 min; Stability [21]: Stable
–	605	128	36.7	40.3	1.68	896	> 10000	> 10000	236	O=[N+]([O-])c1cc2c(cc1CO/C(=N\OC[C@H](O)CO)c1ccc(F)c(F)c1Nc1ccc(I)cc1F)OCO2	–	> 10000	Drug metabolism [17]: Metabolite_Detected
